Source: patent US4661516A, “Diaminocyclohexane platinum complexes” (Research Corporation, priority 1984, dated 1987)

How the values were obtained:
[1] = system: L1210/0 leukemia cells; assay: In vivo anti-tumor activity, L1210 (L1210/0), multiple i.p. doses; parameters: species or system BDF1 mice; details: days 1,5,9
Protocol: BDF1 mice were inoculated intraperitoneally with 10^6 L1210 cells. About 24 hours after inoculation of the cells, the mice were injected intraperitoneally with varying dosages of complexes of the present invention. Six mice were used for each dosage level in each experiment with an equal number of control mice inoculated with 10^6 L1210 cells and left untreated with a given complex. The results [%T/C=(survival time of treated animals/survival time of control animals)×100] are set forth below. Long term survival signifies that animals were alive 60 days after inoculation with L1210 cells.
The procedure of Example 16 was repeated except that the treated animals were injected with multiple doses of the complex as indicated below:
The anti-tumor activity of compound number 3 was evaluated against cells sensitive to (L1210/0) and resistant to (L1210/PDD) the standard platinum complex cis-diamminedichloroplatinum(II).
The following complexes were tested in vivo oncolytic activity following 3 i.p. injections (days 1, 5, 9) according to the protocol described in Examples 16 and 17.
BDF1 mice were innoculated intraperitoreally with 10^6 L1210 leukemia cells and treatment was begun on the next day (day 1). Two treatment schedules, i.e. single i.p. injection of the drug and i.p. injections on days 1, 5 and 9 according to the protocol described in Examples 16 and 17 were used.

[2] = system: L1210 cells; assay: In vivo anti-tumor activity, L1210, single i.p. injection; parameters: species or system BDF1 mice; details: single i.p.
Protocol: About 24 hours after inoculation of the cells, the mice were injected intraperitoneally with varying dosages of complexes of the present invention. […] Long term survival signifies that animals were alive 60 days after inoculation with L1210 cells.

[3] = system: Wild type L1210 leukemic cells; assay: In vitro cytotoxicity, wild type L1210 leukemic cells (L1210/0); type: cell-based; details: for ID50: L1210, 72 hours incubation
Protocol: Four ml of cell suspension (10^5 cells/ml) are added to culture tubes and the appropriate concentration (0.01, 0.1, 1 or 10 μg/ml final concentration) of drug added to the culture tubes. After 72 hours of incubation, the cell concentration of control and experimental cultures are determined with the aid of a Coulter Counter® Model ZBf and the percent inhibition calculated. […]

[4] = system: L1210 leukemia cells (L1210/PDD); assay: In vitro cytotoxicity / cross-resistance, L1210/PDD (L1210/DDP) cells resistant to cisdiamminedichloroplatinum(II); type: cell-based; details: for ID50 L1210/DDP: Tables VII and VIII, 5760 min; for ID50 L1210/PDD: 96 hours
Protocol: Four ml of cell suspension were added to culture tubes and the appropriate concentration (0.01, 0.1, 1 or 10 μg/ml final drug concentration) was added. After 96 hours the cell concentration of control and experimental cultures were calculated with the aid of a Coulter Counter® Model ZBf and the percent inhibition calculated.

[5] = system: Male albino mice; assay: Acute toxicity, single intraperitoneal injection (Example 19); type: in vivo; details: single i.p.; for Calculated LD10 / Calculated LD50 / Calculated LD90: 14 days
Protocol: Fourteen days after treatment all surviving mice were sacrified and the LD10, LD50 and LD90 were calculated.

Compound	% T/C ([2]; 25 mg/kg) [%]	% T/C ([2]; 50 mg/kg)	% T/C ([2]; 100 mg/kg)	ID50 L1210/DDP [4] [µg/mL]	ID50 [3] [µg/mL]	ID50 L1210/PDD [4] [µg/mL]	% T/C ([2]; 12.5 mg/kg) [%]	other results
NC1CCCCC1N.O=C1OC(C(O)CO)C([O-])=C1O.O=C1OC(C(O)CO)C([O-])=C1O.[Pt+2] (mixture of isomers) [Compound 7, cis-bis-isoascorbato(DACH)Pt(II).3H2 O]	132	136%	196%	3.8	–	–	–	% T/C ([1]; 12.5 mg/kg): 151%; % T/C ([1]; 25 mg/kg): 179%; % T/C ([1]; 50 mg/kg): 212%; animals died of apparent drug toxicity ([2]; 100 mg/kg): 2/6; Long Term Survivors ([2]; 100 mg/kg, alive 60 days after inoculation): 1/6; ID50 ([3]; 4320 min): 4.1 µg/mL
N[C@@H]1CCCC[C@H]1N.O=C1O[C@H]([C@@H](O)CO)C([O-])=C1O.O=C1O[C@H]([C@@H](O)CO)C([O-])=C1O.[Pt+2] [Compound 4, cis-bis-ascorbato(trans-R,R--DACH)Pt(II).3H2 O]	128	184%	–	–	1.9	0.4	–	% T/C ([1]; 25 mg/kg): 218%; % T/C ([1]; 50 mg/kg): 144%; Long Term Survivors (LTS) ([2]; 50 mg/kg, alive 60 days after inoculation): 1/6
N[C@H]1CCCC[C@@H]1N.O=C1O[C@H]([C@@H](O)CO)C([O-])=C1O.O=C1O[C@H]([C@@H](O)CO)C([O-])=C1O.[Pt+2] [Compound 5, cis-bis-ascorbato(trans-S,S--DACH)Pt(II).2H2 O]	136	Toxic	–	–	4.4	2.3	–	DEATHS/TREATED ([5]; 60 mg/kg): 0/6; DEATHS/TREATED ([5]; 80 mg/kg): 2/6; DEATHS/TREATED ([5]; 100 mg/kg): 5/6; DEATHS/TREATED ([5]; 125 mg/kg): 6/6; DEATHS/TREATED ([5]; 160 mg/kg): 5/6; Calculated LD10 [5]: 70 mg/kg; Calculated LD50 [5]: 90 mg/kg; Calculated LD90 [5]: 125 mg/kg
NC1CCCCC1N.O=C1O[C@H]([C@@H](O)C(=O)[O-])[C@H](O)[C@H]1O.O=C1O[C@H]([C@@H](O)C(=O)[O-])[C@H](O)[C@H]1O.[Pt+2] [Compound 9, cis-bis-D-saccharato-1,4-lactone(DACH)Pt(II)]	138	156%	Toxic	–	3.0	0.6	127	DEATHS/TREATED ([5]; 85 mg/kg): 0/6; DEATHS/TREATED ([5]; 100 mg/kg): 0/6; DEATHS/TREATED ([5]; 125 mg/kg): 3/6; DEATHS/TREATED ([5]; 158 mg/kg): 5/6; DEATHS/TREATED ([5]; 200 mg/kg): 4/6; Calculated LD10 [5]: 100 mg/kg; Calculated LD50 [5]: 140 mg/kg; Calculated LD90 [5]: 185 mg/kg
NC1CCCCC1N.NCCOS(=O)(=O)[O-].NCCOS(=O)(=O)[O-].[Pt+2] (stereo not drawn) [Compound 14, cis-bis-2-aminoethylsulfato(DACH)Pt(II)]	–	–	–	3.7	4.3	–	–	–
NC1CCCCC1N.O=C([O-])C1CCCN1.O=C([O-])C1CCCN1.[Pt+2] [Compound 16, cis-bis-L-prolinato(DACH)Pt(II)]	165	165%	162%	2.5	4.0	–	144	animals died of apparent drug toxicity ([2]; 100 mg/kg): 1 animals
NC(=O)CN(CC(=O)[O-])CC(=O)[O-].NC1CCCCC1N.[Pt+2] [Compound 42, N--(2-Acetamido)-iminodiacetato(DACH)Pt(II).1/2H2 O]	–	–	–	1.8	0.7	–	–	ID50 L1210/0 ([3]; L1210/0, protocol of Example 14, Tables VII and VIII, 4320 min): 3.0 µg/mL
furanedicarboxylato(DACH)Pt(II) [Compound 19]	136	Toxic	–	0.9	1.0	–	136	% T/C ([2]; 6.25 mg/kg): 143%
isocitratomonoethylester(DACH)Pt(II).1.5H2 O [Compound 21]	–	–	–	1.9	2.0	–	–	–
